Data taken from ChEMBL document CHEMBL2150974 (J Med Chem, 2012).
Activity calls are given as the source filed them. The calls are words filed in the database; no cut-off is given here.

Legend:
[1] = target: T1, Mitogen-activated protein kinase 14 (Homo sapiens, UniProt Q16539); assay: Inhibition of p38alpha by immunosorbent based kinase assay
[2] = target: T1, Mitogen-activated protein kinase 14; assay: Inhibition of p38alpha-dependent TNFalpha production in human whole blood
[3] = target: RAC-alpha serine/threonine-protein kinase (Homo sapiens) (UniProt P31749); assay: Inhibition of AKT1 at 10 uM
[4] = target: T2, Serine/threonine-protein kinase PLK4 (Homo sapiens) (UniProt O00444); assay: Inhibition of SAK at 10 uM
T2 sequence (whole entry): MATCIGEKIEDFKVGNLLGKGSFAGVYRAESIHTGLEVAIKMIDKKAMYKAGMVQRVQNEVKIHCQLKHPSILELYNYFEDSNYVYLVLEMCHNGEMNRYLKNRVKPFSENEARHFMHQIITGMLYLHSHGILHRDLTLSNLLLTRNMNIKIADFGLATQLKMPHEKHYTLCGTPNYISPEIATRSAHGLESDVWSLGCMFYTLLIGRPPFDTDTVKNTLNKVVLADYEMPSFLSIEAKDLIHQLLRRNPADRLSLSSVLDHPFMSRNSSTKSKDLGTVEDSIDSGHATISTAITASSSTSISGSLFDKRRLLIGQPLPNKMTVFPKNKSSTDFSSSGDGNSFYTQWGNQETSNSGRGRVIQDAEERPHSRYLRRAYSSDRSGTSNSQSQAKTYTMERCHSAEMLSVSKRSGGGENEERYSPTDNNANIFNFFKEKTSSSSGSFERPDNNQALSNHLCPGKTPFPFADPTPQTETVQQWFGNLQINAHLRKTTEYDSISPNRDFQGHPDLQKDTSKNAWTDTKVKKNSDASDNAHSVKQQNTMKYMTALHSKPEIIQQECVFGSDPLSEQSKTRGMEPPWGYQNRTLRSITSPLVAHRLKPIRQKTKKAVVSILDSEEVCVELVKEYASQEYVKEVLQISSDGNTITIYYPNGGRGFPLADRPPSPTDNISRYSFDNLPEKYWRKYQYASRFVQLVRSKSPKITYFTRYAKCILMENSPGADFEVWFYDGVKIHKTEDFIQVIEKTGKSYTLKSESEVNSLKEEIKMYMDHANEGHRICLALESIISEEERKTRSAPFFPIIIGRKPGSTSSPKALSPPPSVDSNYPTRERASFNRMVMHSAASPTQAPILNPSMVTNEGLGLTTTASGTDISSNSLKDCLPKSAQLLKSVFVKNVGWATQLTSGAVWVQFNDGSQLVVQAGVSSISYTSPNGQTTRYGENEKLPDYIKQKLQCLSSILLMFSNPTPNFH

[5] = target: T3, NUAK family SNF1-like kinase 1 (Homo sapiens) (UniProt O60285); assay: Inhibition of ARK5 at 10 uM
T3 sequence (whole entry): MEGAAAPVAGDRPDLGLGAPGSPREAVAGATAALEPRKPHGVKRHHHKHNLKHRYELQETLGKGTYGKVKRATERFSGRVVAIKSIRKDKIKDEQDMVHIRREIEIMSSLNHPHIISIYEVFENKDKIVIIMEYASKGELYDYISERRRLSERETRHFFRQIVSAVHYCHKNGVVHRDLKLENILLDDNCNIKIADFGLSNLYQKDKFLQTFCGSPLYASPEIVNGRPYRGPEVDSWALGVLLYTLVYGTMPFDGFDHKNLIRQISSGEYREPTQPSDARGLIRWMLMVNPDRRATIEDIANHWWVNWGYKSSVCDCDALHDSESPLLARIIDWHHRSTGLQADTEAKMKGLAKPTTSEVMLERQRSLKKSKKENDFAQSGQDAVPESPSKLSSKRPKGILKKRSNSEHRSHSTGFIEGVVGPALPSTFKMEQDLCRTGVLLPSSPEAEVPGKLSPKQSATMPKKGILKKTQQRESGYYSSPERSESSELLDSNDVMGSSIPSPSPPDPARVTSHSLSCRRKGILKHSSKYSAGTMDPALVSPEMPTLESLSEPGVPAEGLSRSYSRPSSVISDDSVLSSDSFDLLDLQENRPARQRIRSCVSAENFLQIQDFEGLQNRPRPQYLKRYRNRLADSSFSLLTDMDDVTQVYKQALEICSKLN

[6] = target: BDNF/NT-3 growth factors receptor (Homo sapiens) (UniProt Q16620); assay: Inhibition of TRKB at 10 uM
[7] = target: Aurora kinase B (Homo sapiens) (UniProt Q96GD4); assay: Inhibition of AuroraB at 10 uM
Sequence of Aurora kinase B (Homo sapiens) (Q96GD4 whole entry): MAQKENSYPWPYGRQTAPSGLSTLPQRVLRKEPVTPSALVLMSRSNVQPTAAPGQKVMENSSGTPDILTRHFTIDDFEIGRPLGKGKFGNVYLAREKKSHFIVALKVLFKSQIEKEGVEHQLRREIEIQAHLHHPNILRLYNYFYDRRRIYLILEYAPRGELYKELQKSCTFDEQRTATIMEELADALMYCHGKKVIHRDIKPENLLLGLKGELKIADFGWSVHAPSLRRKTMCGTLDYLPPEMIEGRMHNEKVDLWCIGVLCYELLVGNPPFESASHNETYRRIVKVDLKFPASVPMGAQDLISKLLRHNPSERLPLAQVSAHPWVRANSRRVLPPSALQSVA

[8] = target: Proto-oncogene tyrosine-protein kinase Src (Homo sapiens) (UniProt P12931); assay: Inhibition of SRC at 10 uM
[9] = test system: Serine/threonine-protein kinase B-raf (Homo sapiens), P15056 [V600E]; assay: Inhibition of BRAF V600E mutant at 10 uM
[10] = target: Vascular endothelial growth factor receptor 2 (Homo sapiens) (UniProt P35968); assay: Inhibition of VEGFR2 at 10 uM
[11] = target: Insulin receptor (Homo sapiens) (UniProt P06213); assay: Inhibition of INSR at 10 uM
[12] = target: Insulin-like growth factor 1 receptor (Homo sapiens) (UniProt P08069); assay: Inhibition of IGF1R at 10 uM
Sequence of Insulin-like growth factor 1 receptor (Homo sapiens) (P08069 31-736 limits assumed): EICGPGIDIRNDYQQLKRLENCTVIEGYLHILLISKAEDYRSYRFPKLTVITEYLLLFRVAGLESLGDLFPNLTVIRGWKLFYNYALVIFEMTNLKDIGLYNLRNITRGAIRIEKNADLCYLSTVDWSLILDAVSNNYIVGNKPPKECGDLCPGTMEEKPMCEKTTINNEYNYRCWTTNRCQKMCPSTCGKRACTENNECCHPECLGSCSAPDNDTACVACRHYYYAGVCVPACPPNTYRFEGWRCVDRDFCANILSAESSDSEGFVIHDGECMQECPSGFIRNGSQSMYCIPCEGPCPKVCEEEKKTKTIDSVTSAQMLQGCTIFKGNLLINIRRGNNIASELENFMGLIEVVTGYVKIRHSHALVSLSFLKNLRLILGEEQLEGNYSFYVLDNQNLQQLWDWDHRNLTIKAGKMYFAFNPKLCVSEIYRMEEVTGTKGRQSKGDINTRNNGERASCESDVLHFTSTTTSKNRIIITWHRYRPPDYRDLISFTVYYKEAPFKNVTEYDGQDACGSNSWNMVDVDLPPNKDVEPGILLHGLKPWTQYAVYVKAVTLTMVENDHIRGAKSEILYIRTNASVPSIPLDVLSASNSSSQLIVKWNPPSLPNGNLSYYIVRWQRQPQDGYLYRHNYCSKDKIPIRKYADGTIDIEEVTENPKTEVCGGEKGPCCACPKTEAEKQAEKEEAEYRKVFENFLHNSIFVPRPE
Sequence of Insulin-like growth factor 1 receptor (Homo sapiens) (P08069 741-1367 limits assumed): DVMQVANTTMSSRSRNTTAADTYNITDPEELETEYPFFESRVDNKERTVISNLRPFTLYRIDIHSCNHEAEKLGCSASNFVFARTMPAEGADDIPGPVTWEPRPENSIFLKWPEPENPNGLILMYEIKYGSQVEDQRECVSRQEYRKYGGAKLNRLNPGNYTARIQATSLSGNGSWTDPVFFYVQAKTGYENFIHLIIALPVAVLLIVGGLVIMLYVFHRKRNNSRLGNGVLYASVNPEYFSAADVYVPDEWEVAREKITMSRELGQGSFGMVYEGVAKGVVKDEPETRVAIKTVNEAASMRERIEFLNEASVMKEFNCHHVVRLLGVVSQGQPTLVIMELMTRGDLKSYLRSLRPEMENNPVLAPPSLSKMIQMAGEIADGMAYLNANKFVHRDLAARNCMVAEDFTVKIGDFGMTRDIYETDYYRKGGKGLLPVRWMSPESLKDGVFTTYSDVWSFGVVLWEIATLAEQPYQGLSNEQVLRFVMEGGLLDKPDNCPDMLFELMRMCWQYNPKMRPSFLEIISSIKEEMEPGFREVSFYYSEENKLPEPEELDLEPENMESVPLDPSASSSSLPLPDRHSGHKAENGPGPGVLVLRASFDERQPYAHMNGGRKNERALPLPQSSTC

[13] = target: Hepatocyte growth factor receptor (Homo sapiens) (UniProt P08581); assay: Inhibition of MET at 10 uM
Sequence of Hepatocyte growth factor receptor (Homo sapiens) (P08581 whole entry): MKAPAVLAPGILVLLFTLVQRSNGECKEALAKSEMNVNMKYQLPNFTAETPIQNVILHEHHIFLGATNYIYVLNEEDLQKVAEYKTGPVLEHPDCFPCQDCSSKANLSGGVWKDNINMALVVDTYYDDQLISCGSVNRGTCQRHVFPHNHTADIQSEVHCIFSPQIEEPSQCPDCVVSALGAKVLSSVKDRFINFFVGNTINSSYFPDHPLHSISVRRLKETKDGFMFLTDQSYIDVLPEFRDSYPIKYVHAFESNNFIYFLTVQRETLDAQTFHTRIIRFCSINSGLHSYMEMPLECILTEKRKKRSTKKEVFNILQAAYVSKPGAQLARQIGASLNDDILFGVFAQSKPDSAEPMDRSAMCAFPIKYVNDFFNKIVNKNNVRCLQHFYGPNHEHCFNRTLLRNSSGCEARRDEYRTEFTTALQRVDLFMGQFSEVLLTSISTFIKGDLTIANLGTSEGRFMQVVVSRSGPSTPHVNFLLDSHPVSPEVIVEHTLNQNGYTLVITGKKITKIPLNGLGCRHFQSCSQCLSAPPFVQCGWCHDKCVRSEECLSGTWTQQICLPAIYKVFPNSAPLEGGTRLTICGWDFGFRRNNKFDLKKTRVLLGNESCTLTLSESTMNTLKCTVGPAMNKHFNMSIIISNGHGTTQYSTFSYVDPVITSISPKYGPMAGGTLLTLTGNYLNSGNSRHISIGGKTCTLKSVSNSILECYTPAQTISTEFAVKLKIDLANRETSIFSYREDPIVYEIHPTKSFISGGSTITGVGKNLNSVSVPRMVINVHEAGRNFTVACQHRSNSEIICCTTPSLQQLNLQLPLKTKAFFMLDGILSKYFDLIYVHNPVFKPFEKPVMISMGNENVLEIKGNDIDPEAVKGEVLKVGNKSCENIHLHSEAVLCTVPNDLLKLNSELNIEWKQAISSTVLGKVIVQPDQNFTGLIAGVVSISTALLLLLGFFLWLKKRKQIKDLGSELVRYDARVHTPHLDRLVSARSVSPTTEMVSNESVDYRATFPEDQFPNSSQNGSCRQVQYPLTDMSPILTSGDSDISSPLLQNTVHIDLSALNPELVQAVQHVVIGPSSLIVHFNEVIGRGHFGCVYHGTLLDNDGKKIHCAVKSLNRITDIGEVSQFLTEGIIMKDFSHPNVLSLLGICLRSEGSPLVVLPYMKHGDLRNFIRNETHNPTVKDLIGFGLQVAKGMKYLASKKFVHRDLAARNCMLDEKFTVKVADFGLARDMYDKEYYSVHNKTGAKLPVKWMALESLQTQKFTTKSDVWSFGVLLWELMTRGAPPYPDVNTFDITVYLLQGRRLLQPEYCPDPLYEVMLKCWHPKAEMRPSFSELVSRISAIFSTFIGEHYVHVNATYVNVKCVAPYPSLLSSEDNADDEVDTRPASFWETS

[14] = target: Focal adhesion kinase 1 (Homo sapiens) (UniProt Q05397); assay: Inhibition of FAK at 10 uM
[15] = target: Serine/threonine-protein kinase PLK1 (Homo sapiens) (UniProt P53350); assay: Inhibition of PLK1 at 10 uM
Sequence of Serine/threonine-protein kinase PLK1 (Homo sapiens) (P53350 whole entry): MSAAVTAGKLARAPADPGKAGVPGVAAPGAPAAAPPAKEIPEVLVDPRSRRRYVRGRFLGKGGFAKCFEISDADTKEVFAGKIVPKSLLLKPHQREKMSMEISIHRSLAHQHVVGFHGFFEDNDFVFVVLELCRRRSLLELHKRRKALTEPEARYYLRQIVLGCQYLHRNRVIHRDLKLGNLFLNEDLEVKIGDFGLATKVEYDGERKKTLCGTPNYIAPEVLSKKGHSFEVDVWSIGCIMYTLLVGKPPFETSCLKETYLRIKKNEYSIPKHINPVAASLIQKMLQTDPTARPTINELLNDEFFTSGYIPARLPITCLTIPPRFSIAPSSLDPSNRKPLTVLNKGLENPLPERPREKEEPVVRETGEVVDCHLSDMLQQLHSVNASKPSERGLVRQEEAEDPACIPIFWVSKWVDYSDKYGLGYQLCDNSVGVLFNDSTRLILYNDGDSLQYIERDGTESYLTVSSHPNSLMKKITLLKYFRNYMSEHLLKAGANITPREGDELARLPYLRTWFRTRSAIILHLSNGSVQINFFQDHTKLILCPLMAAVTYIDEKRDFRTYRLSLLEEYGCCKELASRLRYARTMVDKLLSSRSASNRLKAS

[16] = target: Tyrosine-protein kinase receptor UFO (Homo sapiens) (UniProt P30530); assay: Inhibition of AXL at 10 uM
[17] = target: Serine/threonine-protein kinase N1 (Homo sapiens) (UniProt Q16512); assay: Inhibition of PRK1 at 10 uM
Sequence of Serine/threonine-protein kinase N1 (Homo sapiens) (Q16512 2-942 limits assumed): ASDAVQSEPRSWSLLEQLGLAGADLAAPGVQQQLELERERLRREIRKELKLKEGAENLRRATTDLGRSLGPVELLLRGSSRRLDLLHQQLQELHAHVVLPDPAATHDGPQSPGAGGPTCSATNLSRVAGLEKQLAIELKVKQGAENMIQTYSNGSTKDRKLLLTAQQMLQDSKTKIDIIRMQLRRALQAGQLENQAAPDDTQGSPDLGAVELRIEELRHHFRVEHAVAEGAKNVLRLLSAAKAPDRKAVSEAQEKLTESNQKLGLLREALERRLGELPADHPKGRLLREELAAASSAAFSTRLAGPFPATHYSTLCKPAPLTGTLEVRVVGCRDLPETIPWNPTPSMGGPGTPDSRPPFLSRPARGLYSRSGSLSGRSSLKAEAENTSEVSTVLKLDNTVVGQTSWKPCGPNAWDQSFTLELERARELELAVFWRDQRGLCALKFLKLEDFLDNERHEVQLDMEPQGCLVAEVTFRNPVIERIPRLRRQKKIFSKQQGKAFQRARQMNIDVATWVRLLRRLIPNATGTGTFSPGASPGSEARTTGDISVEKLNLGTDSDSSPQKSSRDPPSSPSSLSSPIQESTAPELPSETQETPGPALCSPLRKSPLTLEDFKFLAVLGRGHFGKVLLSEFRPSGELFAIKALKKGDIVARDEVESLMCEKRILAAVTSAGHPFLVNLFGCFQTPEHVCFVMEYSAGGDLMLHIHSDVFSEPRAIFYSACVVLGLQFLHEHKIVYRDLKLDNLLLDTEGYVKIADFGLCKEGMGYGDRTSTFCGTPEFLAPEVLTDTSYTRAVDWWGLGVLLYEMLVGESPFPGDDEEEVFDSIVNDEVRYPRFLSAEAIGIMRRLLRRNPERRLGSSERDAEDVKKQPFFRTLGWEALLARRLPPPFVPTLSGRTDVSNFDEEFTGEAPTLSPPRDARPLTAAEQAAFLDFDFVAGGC

[18] = target: Casein kinase II subunit alpha (Homo sapiens) (UniProt P68400); assay: Inhibition of CK2alpha1 at 10 uM
Sequence of Casein kinase II subunit alpha (Homo sapiens) (P68400 whole entry, looked up): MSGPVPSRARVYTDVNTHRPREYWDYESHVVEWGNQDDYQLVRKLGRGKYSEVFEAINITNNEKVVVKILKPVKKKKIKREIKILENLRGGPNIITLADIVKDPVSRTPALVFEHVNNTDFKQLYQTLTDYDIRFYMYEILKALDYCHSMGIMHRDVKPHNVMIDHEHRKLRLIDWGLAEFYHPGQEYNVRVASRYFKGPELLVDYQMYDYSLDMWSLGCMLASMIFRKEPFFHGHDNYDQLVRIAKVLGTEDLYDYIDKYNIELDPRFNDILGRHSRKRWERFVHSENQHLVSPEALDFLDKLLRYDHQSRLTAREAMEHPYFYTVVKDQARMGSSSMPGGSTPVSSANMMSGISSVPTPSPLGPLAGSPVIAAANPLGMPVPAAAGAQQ

| SMILES | IC50 [1] | IC50 [2] | inhibition [3] | inhibition [4] | inhibition [5] | inhibition [6] | inhibition [7] | inhibition [8] | inhibition [9] | inhibition [10] | inhibition [11] | inhibition [12] | inhibition [13] | inhibition [14] | inhibition [15] | inhibition [16] | inhibition [17] | inhibition [18] |
| --- | --- | --- | --- | --- | --- | --- | --- | --- | --- | --- | --- | --- | --- | --- | --- | --- | --- | --- |
| Nc1ccccc1Nc1ccc2c(c1)CCc1ccc(OC[C@H](O)CO)cc1C2=O | 20 nM | 80 nM | inactive | inactive | inactive | inactive | inactive | inactive | inactive | inactive | inactive | inactive | inactive | inactive | inactive | inactive | inactive | inactive |
| O=C1c2ccc(Nc3ccc(F)cc3F)cc2CCc2cc(OC[C@@H](O)CO)ccc21 | 5 nM | 5200 nM | inactive | inactive | inactive | inactive | inactive | inactive | inactive | inactive | inactive | inactive | inactive | inactive | inactive | inactive | inactive | inactive |
| O=C1c2ccc(Nc3ccc(F)cc3F)cc2CCc2c(O)cccc21 | 20 nM | 37300 nM | inactive | inactive | inactive | inactive | inactive | inactive | inactive | inactive | inactive | inactive | inactive | inactive | inactive | inactive | inactive | inactive |
| O=C1c2ccc(Nc3ccc(F)cc3F)cc2CCc2ccc(OCCO)cc21 | 10 nM | 480 nM | inactive | inactive | inactive | inactive | inactive | inactive | inactive | inactive | inactive | inactive | inactive | inactive | inactive | inactive | inactive | inactive |
| COc1ccc2c(c1)C(=O)c1ccc(Nc3ccc(F)cc3Cl)cc1CC2 | 40 nM | 5400 nM | inactive | inactive | inactive | inactive | inactive | inactive | inactive | inactive | inactive | inactive | inactive | inactive | inactive | inactive | inactive | inactive |
| O=C1c2ccc(Nc3ccc(F)cc3F)cc2CCc2c(OCCN3CCOCC3)cccc21 | 30 nM | 200000 nM | inactive | inactive | inactive | inactive | inactive | inactive | inactive | inactive | inactive | inactive | inactive | inactive | inactive | inactive | inactive | inactive |
| O=C1c2ccc(Nc3ccc(F)cc3F)cc2CCc2ccc(OCCCN3CCOCC3)cc21 | 8 nM | 80 nM | inactive | inactive | inactive | inactive | inactive | inactive | inactive | inactive | inactive | inactive | inactive | inactive | inactive | inactive | inactive | inactive |
| COc1ccc2c(c1)C(=O)c1ccc(Nc3ccc(C(F)(F)F)cc3N)cc1CC2 | 900 nM | 25500 nM | inactive | inactive | inactive | inactive | inactive | inactive | inactive | inactive | inactive | inactive | inactive | inactive | inactive | inactive | inactive | inactive |
| CC1(C)OC[C@H](COc2ccc3c(c2)CCc2cc(Nc4ccc(F)cc4F)ccc2C3=O)O1 | 20 nM | 170000 nM | inactive | inactive | inactive | inactive | inactive | inactive | inactive | inactive | inactive | inactive | inactive | inactive | inactive | inactive | inactive | inactive |
